{"source": "patent US4107165A", "about": "“Tris[tetrahydroisoquinoline] compounds” (Endo Laboratories, priority 1976, dated 1978)", "key": {"whole blood clot": {"system": "whole blood clot", "assay": "whole blood clot lysis method (fibrinolytic activity), blood from rats given compound intraperitoneally", "assay_type": "in vivo", "settings": "Rattus norvegicus, ip, 4 h, intraperitoneal, blood diluted 1:10, clotted with thrombin, 37° C, four hours, read-out: ED50 (dose which causes lysis of 50% of the clot)", "description": "Certain representative compounds within the scope of the present invention have been tested for fibrinolytic activity by the whole blood clot lysis method, as modified from the procedure of Billimoria et al.^1 In this method, blood from rats given a fibrinolytic compound intraperitoneally is taken and diluted 1:10. A standard amount is clotted with thrombin, incubated at 37° C for four hours, and the amount of clot that has lysed is determined. […] These ED50 values for the various compounds tested are set forth in the following table, each of the compounds being identified by name and by the number of the ensuing example in which its synthesis is described. […] ^1 Billimoria, […]., James, […]., Lancet II, 471 (1959)"}, "rats": {"system": "rats", "assay": "toxicity, intraperitoneal administration to rats", "assay_type": "in vivo", "settings": "at 0.01 mg./kg. and at 10 mg./kg.", "excerpt": "An outstanding feature of the compounds of this invention is their relative lack of toxicity. Although they are active at very low dose levels, it is possible to exceed minimum effective levels by wide margins without encountering serious adverse reactions. This permits the compounds to be used within wide limits without concern about undesirable side effects, as are so frequently encountered upon inadvertent overdosage of other substances of great potency."}, "[1]": {"system": "ADP-induced platelet aggregation", "assay": "inhibition of ADP-induced platelet aggregation in platelet rich plasma", "assay_type": "cell-based", "settings": "5 min; human platelet rich plasma, 37° C, five minutes incubation prior to ADP; read-out: ED50 (amount which reduces platelet aggregation by 50%)", "description": "Another selection of representative compounds within the scope of the present invention, including some listed in the previous table, have been tested for their ability to inhibit platelet aggregation. Citrated whole blood from human volunteers, who had not taken any medicine for the previous week, was centrifuged to obtain platelet rich plasma. On addition of ADP (adenosine diphosphate) to this platelet rich plasma, incubated at 37° C with constant stirring, in an aggregometer, optical density changes can be observed which are caused by platelet aggregation. Thus, the extent of ADP-induced platelet aggregation is determined for each sample of blood used. Compounds to be tested were incubated for five minutes prior to the addition of ADP. The ED50 of a compound is that amount, in γ/ml, which reduces platelet aggregation by 50% under the above conditions."}}, "data": [{"molecule": "COc1cc2c(cc1OC)C(CCCCC(CCC1NCCc3cc(OC)c(OC)cc31)CCC1NCCc3cc(OC)c(OC)cc31)NCC2.Cl.Cl.Cl", "note": "(stereo not drawn) [Example 1.1, 1,1'-{3-[2-(1,2,3,4-tetrahydro-6,7-dimethoxy-1-isoquinolinyl)ethyl]heptamethylene}bis[1,2,3,4-tetrahydro-6,7-dimethoxyisoquinoline] trihydrochloride]", "values": [{"measurement": "ED50", "setting": "whole blood clot", "result": 0.02, "unit": "mg/kg"}, {"measurement": "toxicity", "setting": "rats", "result": "without producing toxicity"}, {"measurement": "IC50", "setting": "[1]", "result": 6, "unit": "µg/mL"}]}]}
